# Source: ChEMBL document CHEMBL1201862, “PubChem BioAssay data set” (2004)
#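 1) Cells in 96-well plates. 2) Compound, 48 h, 5 concentrations. 3) Linear interpolation between surrounding doses. 4) Unreached endpoint = highest concentration. GI50 = concentration required for 50% inhibition of growth.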 Active and inactive are the calls of the source. Rule as the data show it: active = GI50 up to about 1.1 µM and inactive = higher.
# Tests used:
# Test in all cases: DTP human tumour cell line panel, 48 h
# [1] = test system: NCI/ADR-RES
# [2] = test system: SW-620
# [3] = test system: K562
# [4] = test system: Malme-3M
# [5] = test system: COLO 205
# [6] = test system: ACHN
# [7] = test system: CAKI-1
# [8] = test system: OVCAR-4
# [9] = test system: M14
# [10] = test system: HL-60
# [11] = test system: UACC-62
# [12] = test system: HOP-92
# [13] = test system: EKVX
# [14] = test system: PC-3
# [15] = test system: OVCAR-8
# [16] = test system: SNB-75
# [17] = test system: NCI-H226
# [18] = test system: OVCAR-5
# [19] = test system: SK-MEL-2
SMILES,GI50 [1],GI50 [2],GI50 [3],GI50 [4],GI50 [5],GI50 [6],GI50 [7],GI50 [8],GI50 [9],GI50 [10],GI50 [11],GI50 [12],GI50 [13],GI50 [14],GI50 [15],GI50 [16],GI50 [17],GI50 [18],GI50 [19]
CCN(CC)/C(Sc1ccccc1)=C(\C(Cl)=C(Cl)Cl)[N+](=O)[O-],24.9 µM (inactive),17.9 µM (inactive),10.8 µM (inactive),18 µM (inactive),16.4 µM (inactive),17.1 µM (inactive),13 µM (inactive),33.7 µM (inactive),17.3 µM (inactive),1.81 µM (inactive),14.6 µM (inactive),14.2 µM (inactive),15.6 µM (inactive),17.2 µM (inactive),17.2 µM (inactive),20.4 µM (inactive),18.5 µM (inactive),,
Cc1ccc(C(=O)Nc2ccc(CP(=O)(O)O)cc2CP(=O)(O)O)cc1NC(=O)Nc1cc(C(=O)Nc2ccc(CP(=O)(O)O)cc2CP(=O)(O)O)ccc1C,> 100 µM (inactive),> 100 µM (inactive),> 100 µM (inactive),> 100 µM (inactive),> 100 µM (inactive),> 100 µM (inactive),> 100 µM (inactive),> 100 µM (inactive),> 100 µM (inactive),> 100 µM (inactive),> 100 µM (inactive),,> 100 µM (inactive),> 100 µM (inactive),> 100 µM (inactive),> 100 µM (inactive),> 100 µM (inactive),> 100 µM (inactive),> 100 µM (inactive)
Clc1c(Cl)c(Cl)c2c(nnn2C2CCCO2)c1Cl (stereo not given),31.7 µM (inactive),,24.3 µM (inactive),31.3 µM (inactive),24.2 µM (inactive),,31.9 µM (inactive),18.9 µM (inactive),39.6 µM (inactive),5.79 µM (inactive),44.4 µM (inactive),,22.3 µM (inactive),39.2 µM (inactive),29.3 µM (inactive),12.9 µM (inactive),34.4 µM (inactive),41.7 µM (inactive),26.5 µM (inactive)
CCOC(=O)c1ccc(Nc2nc3ccc(C(F)(F)F)cc3nc2C(=O)OCC)cc1,> 100 µM (inactive),> 100 µM (inactive),> 100 µM (inactive),> 100 µM (inactive),> 100 µM (inactive),> 100 µM (inactive),81.3 µM (inactive),,> 100 µM (inactive),> 100 µM (inactive),> 100 µM (inactive),> 100 µM (inactive),> 100 µM (inactive),> 100 µM (inactive),> 100 µM (inactive),95.3 µM (inactive),> 100 µM (inactive),> 100 µM (inactive),
C=CC(O)C#Cc1cnc(OC)nc1OC (stereo not given),> 100 µM (inactive),75.9 µM (inactive),23.9 µM (inactive),,81.5 µM (inactive),> 100 µM (inactive),35.1 µM (inactive),> 100 µM (inactive),> 100 µM (inactive),17.2 µM (inactive),> 100 µM (inactive),> 100 µM (inactive),> 100 µM (inactive),> 100 µM (inactive),> 100 µM (inactive),65.8 µM (inactive),30.1 µM (inactive),> 100 µM (inactive),> 100 µM (inactive)
S=C(Nc1ccc2c(c1)oc1ccccc12)c1cccnc1,25.1 µM (inactive),> 100 µM (inactive),,> 100 µM (inactive),> 100 µM (inactive),29.2 µM (inactive),,33.7 µM (inactive),> 100 µM (inactive),,39.5 µM (inactive),25.3 µM (inactive),65.9 µM (inactive),55.3 µM (inactive),26.2 µM (inactive),21.2 µM (inactive),24.3 µM (inactive),55.8 µM (inactive),30.5 µM (inactive)
O[C@H]1[C@@H]2OC[C@@H](O)[C@H](OCc3ccccc3)[C@@](COCc3ccccc3)(O2)[C@@H]1OCc1ccccc1,16.7 µM (inactive),18.5 µM (inactive),25.4 µM (inactive),13.6 µM (inactive),18.2 µM (inactive),16.7 µM (inactive),< 0.01 µM (active),12 µM (inactive),17.3 µM (inactive),32.6 µM (inactive),11.4 µM (inactive),10.2 µM (inactive),14.5 µM (inactive),13.2 µM (inactive),16.7 µM (inactive),2.39 µM (inactive),,15.1 µM (inactive),15.2 µM (inactive)
CNC1=Nc2ccccc2C(=S)N2CSC[C@@H]12,> 100 µM (inactive),> 100 µM (inactive),> 100 µM (inactive),> 100 µM (inactive),> 100 µM (inactive),> 100 µM (inactive),> 100 µM (inactive),> 100 µM (inactive),> 100 µM (inactive),,> 100 µM (inactive),50.9 µM (inactive),,> 100 µM (inactive),> 100 µM (inactive),,,> 100 µM (inactive),> 100 µM (inactive)
